From patent US7989451B2, “Tricyclic 1,2,4-triazine oxides and compositions for therapeutic use in cancer treatments” (Auckland Uniservices Limited, priority 2005, dated 2011) come the findings set out here.

As a reminder, the melting point is the temperature, or range, at which the solid turns liquid.

Counter-ions that a name gives are not always drawn.

The compound `[O-][n+]1nc(NCCCN2CCOCC2)nc2cc3c(cc21)CCO3` [Compound 211, N-[3-(4-Morpholinyl)propyl]-7,8-dihydrofuro[2,3-g][1,2,4]benzotriazin-3-amine 1-Oxide] gave a melting point of 152 to 154 °C. Take `[O-][n+]1nc(NCCCN2CCOCC2)[n+]([O-])c2cc3c(cc21)CCCC3` (as salt: hydrochloride) [Compound 180, N-[3-(4-Morpholinyl)propyl]-6,7,8,9-tetrahydronaphtho[2,3-e][1,2,4]triazin-3-amine 1,4-Dioxide]: the melting point lay in the range of 182 to 185 °C. Regarding `Nc1nc2ccc3c(c2[n+]([O-])n1)CCCC3` [Compound 170, 7,8,9,10-Tetrahydronaphtho[2,1-e][1,2,4]triazin-3-amine 1-Oxide], the melting point is 271 °C (dec.). `[O-][n+]1nc(NCCCCN2CCOCC2)nc2cc3c(cc21)CCC3` [Compound 62, N-[4-(4-Morpholinyl)butyl]-7,8-dihydro-6H-indeno[5,6-e][1,2,4]triazin-3-amine 1-Oxide] gave a melting point of 151 to 152 °C.

The compound `CCN(CC)CCNc1nc2ccc3c(c2[n+]([O-])n1)CCC3` [Compound 8, N^1,N^1-Diethyl-N^2-(1-oxido-8,9-dihydro-7H-indeno[5,4-e][1,2,4]triazin-3-yl)-1,2-ethanediamine] yielded a melting point of 126 to 130 °C.

Take `Nc1nc2cc3c(cc2[n+]([O-])n1)CC(CO)C3` (stereo not shown) [Compound 124, (3-Amino-1-oxido-7,8-dihydro-6H-indeno[5,6-e][1,2,4]triazin-7-yl)methanol]: the melting point lay in the range of 255 to 257 °C. On to `O=CCCc1nc2cc3c(cc2[n+]([O-])n1)CCO3` [Compound 214, 3-(1-Oxido-7,8-dihydrofuro[2,3-g][1,2,4]benzotriazin-3-yl)propanal], for which the melting point lay within 140 to 142 °C. Regarding `[O-][n+]1nc(NCCCN2CCOCC2)nc2cc3c(cc21)OCC3` [Compound 199, N-[3-(4-Morpholinyl)propyl]-6,7-dihydrofuro[3,2-g][1,2,4]benzotriazin-3-amine 1-Oxide], the melting point fell in the range of 142 to 144 °C. `[O-][n+]1nc(Cl)nc2cc3c(cc21)CCO3` [Compound 206, 3-Chloro-7,8-dihydrofuro[2,3-g][1,2,4]benzotriazine 1-Oxide] came in with a melting point of 203 to 205 °C. With `CN(C)CCNc1nc2cc3c(cc2[n+]([O-])n1)OCC3` [Compound 197, N^1,N^1-Dimethyl-N^2-(1-oxido-6,7-dihydrofuro[3,2-g][1,2,4]benzotriazin-3-yl)-1,2-ethanediamine], the melting point fell in the range of 153 to 157 °C. In turn, `CC1Cc2cc3nc(I)n[n+]([O-])c3cc2C1` (stereo not shown) [Compound 100, 3-Iodo-7-methyl-7,8-dihydro-6H-indeno[5,6-e][1,2,4]triazine 1-Oxide] returned a melting point of 140 to 142 °C. With `[O-][n+]1nc(NCCN2CCCCCC2)nc2cc3c(cc21)CCC3` [Compound 46, N-[2-(1-Azepanyl)ethyl]-7,8-dihydro-6H-indeno[5,6-e][1,2,4]triazin-3-amine 1-Oxide], the melting point was in the range of 121 to 123 °C. With `CN(C)CCNc1nc2ccc3c(c2[n+]([O-])n1)CCCO3` [Compound 236, N^1,N^1-Dimethyl-N^2-(1-oxido-9,10-dihydro-8H-chromeno[6,5-e][1,2,4]triazin-3-yl)-1,2-ethanediamine], the melting point is 119 to 120 °C. The compound `Nc1nc2cc3c(cc2[n+]([O-])n1)OCC3` [Compound 195, 6,7-Dihydrofuro[3,2-g][1,2,4]benzotriazin-3-amine 1-Oxide] returned a melting point of 241 to 246 °C. For `CCc1nc2cc3c(cc2[n+]([O-])n1)CCN(C)C3` [Compound 260, 3-Ethyl-7-methyl-6,7,8,9-tetrahydro[1,2,4]triazino[6,5-g]isoquinoline 1-Oxide] the value was 129 to 131 °C. On to `C=CCc1nc2cc3c(cc2[n+]([O-])n1)CCC3` [Compound 69, 3-Allyl-7,8-dihydro-6H-indeno[5,6-e][1,2,4]triazine 1-Oxide], for which the melting point was 60 to 61 °C. `CC1Cc2cc3nc(NCCN(C)C)n[n+]([O-])c3cc2C1` (stereo not shown) [Compound 96, N^1,N^1-Dimethyl-N^2-(7-methyl-1 oxido-7,8-dihydro-6H-indeno[5,6-e][1,2,4]triazin-3-yl)-1,2-ethanediamine] registered a melting point of 119 to 121 °C.

On to `[O-][n+]1ncnc2cc3c(cc21)CCC3` [Compound 64, 7,8-Dihydro-6H-indeno[5,6-e][1,2,4]triazine 1-Oxide], for which the melting point was in the range of 130 to 131 °C.

Consider `O=CCCc1nc2cc3c(cc2[n+]([O-])n1)CCC3` [Compound 75, 3-(1-oxido-7,8-dihydro-6H-indeno[5,6-e][1,2,4]triazin-3-yl)propanal], for which the melting point lay within 72 to 74 °C.

Take `CCNc1nc2cc3c(cc2[n+]([O-])n1)CC(CO)C3` (stereo not shown) [Compound 126, [3-(Ethylamino)-1-oxido-7,8-dihydro-6H-indeno[5,6-e][1,2,4]triazin-7-yl]methanol]: the melting point was 150 °C. Next, `CN(C)CCNc1nc2cc3c(cc2[n+]([O-])n1)CCC3` [Compound 22, N^1,N^1-Dimethyl-N^2-(1-oxido-7,8-dihydro-6H-indeno[5,6-e][1,2,4]triazin-3-yl)-1,2-ethanediamine]: 122 to 124 °C; `CN1CCc2cc3c(cc2C1)nc(N)n[n+]3[O-]` [Compound 256, 7-Methyl-6,7,8,9-tetrahydro[1,2,4]triazino[6,5-g]isoquinolin-3-amine 1-Oxide]: 170 to 175 °C. `CCc1nc2cc3c(cc2[n+]([O-])n1)CC(CO[Si](C)(C)C(C)(C)C)C3` (stereo not shown): the melting point lay within 63 to 65 °C. `[O-][n+]1nc(NCCCN2CCOCC2)nc2cc3c(cc21)CCC3` [Compound 60, N-[3-(4-Morpholinyl)propyl]-7,8-dihydro-6H-indeno[5,6-e][1,2,4]triazin-3-amine 1-Oxide] yielded a melting point of 139 to 141 °C. In turn, `COC1CN(CCNc2nc3cc4c(cc3[n+]([O-])n2)CCC4)C1` [Compound 34, N-[2-(3-Methoxy-1-azetidinyl)ethyl]-7,8-dihydro-6H-indeno[5,6-e][1,2,4]triazin-3-amine 1-Oxide] had a melting point of 139 to 141 °C. Take `Nc1nc2cc3c(cc2[n+]([O-])n1)CC(CCO)C3` (stereo not shown) [Compound 157, 2-(3-Amino-1-oxido-7,8-dihydro-6H-indeno[5,6-e][1,2,4]triazin-7-yl)ethanol]: the melting point lay within 230 to 235 °C. Regarding `Nc1nc2cc3c(cc2[n+]([O-])n1)OCCC3` [Compound 239, 7,8-Dihydro-6H-chromeno[6,7-e][1,2,4]triazin-3-amine 1-Oxide], the melting point lay within 280 to 283 °C. As for `COC1CCCN(CCNc2nc3cc4c(cc3[n+]([O-])n2)CCC4)C1` (stereo not shown) [Compound 40, N-[2-(3-Methoxy-1-piperidinyl)ethyl]-7,8-dihydro-6H-indeno[5,6-e][1,2,4]triazin-3-amine 1-Oxide], the melting point is 123 to 124 °C.

Take `CCCN(CCC)CCNc1nc2ccc3c(c2[n+]([O-])n1)CCC3` [Compound 10, N^1-(1-Oxido-8,9-dihydro-7H-indeno[5,4-e][1,2,4]triazin-3-yl)-N^2,N^2-dipropyl-1,2-ethanediamine]: the melting point was in the range of 148 to 151 °C. `CCNc1nc2cc3c(cc2[n+]([O-])n1)CCN(C)C3` [Compound 258, N-Ethyl-7-methyl-6,7,8,9-tetrahydro[1,2,4]triazino[6,5-g]isoquinolin-3-amine 1-Oxide]: the melting point is 193 to 196 °C. `[O-][n+]1nc(NCCN2CCOCC2)nc2cc3c(cc21)CCC3` [Compound 44, N-[2-(4-Morpholinyl)ethyl]-7,8-dihydro-6H-indeno[5,6-e][1,2,4]triazin-3-amine 1-Oxide] registered a melting point of 178 to 179 °C. `[O-][n+]1nc(NCCN2CCOCC2)[n+]([O-])c2cc3c(cc21)CCC3` (as salt: hydrochloride) [Compound 45, N-[2-(4-Morpholinyl)ethyl]-7,8-dihydro-6H-indeno[5,6-e][1,2,4]triazin-3-amine 1,4-Dioxide] gave a melting point of 184 to 185 °C.

`CCc1nc2cc3c(cc2[n+]([O-])n1)CC(CO)C3` (stereo not shown) [Compound 142, (3-Ethyl-1-oxido-7,8-dihydro-6H-indeno[5,6-e][1,2,4]triazin-7-yl)methanol]: the melting point lay within 122 to 123 °C. `COCCCN(C)CCNc1nc2cc3c(cc2[n+]([O-])n1)CCC3` [Compound 32, N^1-(3-Methoxypropyl)-N^1-methyl-N^2-(1-oxido-7,8-dihydro-6H-indeno[5,6-e][1,2,4]triazin-3-yl)-1,2-ethanediamine] yielded a melting point of 41 to 42 °C.

In turn, `CN1CCc2ccc3nc(N)n[n+]([O-])c3c2C1` [Compound 262, 9-Methyl-7,8,9,10-tetrahydro[1,2,4]triazino[5,6-h]isoquinolin-3-amine 1-Oxide] yielded a melting point of 226 to 229 °C.

`[O-][n+]1nc(I)nc2cc3c(cc21)CC(CCO)C3` (stereo not shown) [Compound 158, 2-(3-Iodo-1-oxido-7,8-dihydro-6H-indeno[5,6-e][1,2,4]triazin-7-yl)ethanol]: the melting point lay within 96 to 99 °C.

The compound `N#CC1CCN(CCCNc2nc3cc4c(cc3[n+]([O-])n2)CCC4)C1` (stereo not shown) [Compound 56, 1-{3-[(1-Oxido-7,8-dihydro-6H-indeno[5,6-e][1,2,4]triazin-3-yl)amino]propyl}-3-pyrrolidinecarbonitrile] registered a melting point of 111 to 112 °C. Next, `COCCN(C)CCCNc1nc2cc3c(cc2[n+]([O-])n1)CCC3` [Compound 52, N^1-(2-Methoxyethyl)-N^1-methyl-N^3-(1-oxido-7,8-dihydro-6H-indeno[5,6-e][1,2,4]triazin-3-yl)-1,3-propanediamine]: 59 to 61 °C; `[O-][n+]1nc(NCCCO)nc2cc3c(cc21)CCC3` [Compound 50, 3-[(1-Oxido-7,8-dihydro-6H-indeno[5,6-e][1,2,4]triazin-3-yl)amino]-1-propanol]: 190 to 190.5 °C; `[O-][n+]1nc(NCCN2CCCOCC2)nc2cc3c(cc21)CCC3` [Compound 48, N-[2-(1,4-Oxazepan-4-yl)ethyl]-7,8-dihydro-6H-indeno[5,6-e][1,2,4]triazin-3-amine 1-Oxide]: 119 to 120 °C.
